According to patent US3966719A, “4-(Tetrazol-5-yl)-Δ^3 -cephem compounds” (Pfizer Inc., priority 1974, dated 1976):
Converted amounts (≈) assume the structure as drawn.

Tested on: Streptomyces pyogenes
Test: antimicrobial test in nutrient broth, minimum concentration (MIC) at which growth failed to occur
Assay type: cell-based
Conditions: standardized conditions, read-out: In vitro MIC

Compound | MIC [mg/L]
CC1=C(c2nn[nH]n2)N2C(=O)C(NC(=O)Cn3cnnn3)C2SC1 (centres unmarked) | 6.2 (≈ 17.8 µM)
Cn1nnnc1SCC1=C(c2nn[nH]n2)N2C(=O)C(NC(=O)Cc3cccs3)C2SC1 (centres unmarked) | 0.1 (≈ 0.21 µM)
Cn1nnnc1SCC1=C(c2nn[nH]n2)N2C(=O)C(NC(=O)[C@H](O)c3ccccc3)C2SC1 (stereo partly drawn) [7-D-(α-Hydroxy-α-phenylacetamido)-3-(1-methyltetrazol-5-ylthiomethyl)-4-(tetrazol-5-yl)-Δ^3-cephem] | 3.12 (≈ 6.41 µM)
CC1=C(c2nn[nH]n2)N2C(=O)C(NC(=O)Cc3ccccc3)C2SC1 (centres unmarked) [C6H5CH2--, A = H, 7-Phenylacetamido-3-methyl-4-(tetrazol-5-yl)-Δ^3-cephem] | 0.78 (≈ 2.19 µM)
CC1=C(c2nn[nH]n2)N2C(=O)C(NC(=O)C(N=[N+]=[N-])c3ccccc3)C2SC1 (centres unmarked) [C6H5CH(N3)--, A = H] | 1.5 (≈ 3.77 µM)
CC1=C(c2nn[nH]n2)N2C(=O)C(NC(=O)COc3ccccc3)C2SC1 (centres unmarked) [C6H5OCH2--, A = H, 7-Phenoxyacetamido-3-methyl-4-(tetrazol-5-yl)-Δ^3-cephem] | 3.1 (≈ 8.32 µM)
CC1=C(c2nn[nH]n2)N2C(=O)C(NC(=O)[C@H](N)c3ccc(O)cc3)C2SC1 (stereo partly drawn) [D--4-HOC6H4CH(NH2)--, A = H, 7-[D-α-Amino-α-(p-hydroxyphenyl)acetamido]-3-methyl-4-(tetrazol-5-yl)-Δ^3-cephem] | 1.5 (≈ 3.87 µM)
CC1=C(c2nn[nH]n2)N2C(=O)C(NC(=O)[C@H](O)c3ccccc3)C2SC1 (stereo partly drawn) [D--C6H5CH(OH)--, A = H, 7-(D-α-Hydroxyphenylacetamido)-3-methyl-4-(tetrazol-5-yl)-Δ^3-cephem] | 1.5 (≈ 4.03 µM)
CC1=C(c2nn[nH]n2)N2C(=O)C(NC(=O)CSc3nnc(C)s3)C2SC1 (centres unmarked) [R1 not printed, A = H] | 0.78 (≈ 1.9 µM)
CC1=C(c2nn[nH]n2)N2C(=O)C(NC(=O)Cc3cccs3)C2SC1 (centres unmarked) [R1 not printed, A = H] | 0.4 (≈ 1.1 µM)
CC(=O)OCC1=C(c2nn[nH]n2)N2C(=O)C(NC(=O)Cc3cccs3)C2SC1 (centres unmarked) [R1 not printed, A = OCOCH3] | 1.6 (≈ 3.81 µM)
